Measurements: US11471459B2, “Compounds with enhanced anti-tumor effects” (FONDAZIONE PER L'ISTITUTO ONCOLOGICO DI RICERCA (IOR), priority 2018, dated 2022)

Legend:
[1] = tested on: REC1; experiment: Propidium iodide cell cycle staining; format: cell-based, human; conditions: REC1, 500 and 2000 nM, 72 h
Method: (§1) Lymphoma cells (10^6 per condition) were fixed in cold 70% ethanol (for at least 30 minutes at 4° C.), added dropwise to the cell pellet while vortexing. Cells were washed ×2 in PBS and Spin at 2000 rpm; supernatant was discarded and cells suspended in PBS (0.5 mL) and treated with Ribonuclease (50 μl of 100 μg/mL RNase). Then 200 μl of propidium iodide (50 μg/ml) were added and data acquisition was performed by using BD FACS-Canto II.

[2] = tested on: PLL cell lines; experiment: Proliferation MTT assay, median per subtype; format: cell-based; conditions: PLL cell lines (n=2), 72 h
[3] = tested on: OCI-LY-19; experiment: Propidium iodide cell cycle staining; format: cell-based; conditions: OCI-LY-19, 500 and 2000 nM, 72 h
Method: as §1

[4] = tested on: human Mantle cell lymphoma REC1 cells; experiment: Xenograft experiment, REC1 model; format: in vivo; conditions: 200 mg/Kg i.p. once per day, 5 days per week
Method: (§2) EG-011 was dissolved in dimethyl sulphoxide (DMSO) to obtain a stock concentration of 10 mM for in vitro experiments. EG-011 was dissolved in 25% hydroxypropyl beta cyclodextrin (HP-β-CD) in water and adjusted at pH 6.0 using NaOH (0.1 N) and HCl (0.1 N) for in vivo experiments. Application volume was 4.5 mL/kg (100 mg in 4.5 mL), and mice received 200 microliters (corresponding to 200 mg/kg) though intra peritoneal i.p. injection, once per day and five days per week.
NOD-Scid (NOD.CB17-Prkdcscid/NCrHsd) mice were purchased from Harlan Laboratory (five-six weeks of age, approximately 20 g body weight). Mice maintenance and animal experiments were performed under institutional guidelines established for the Animal Facility and with study protocols approved by the local Cantonal Veterinary Authority. Mice were subcutaneously engrafted with 15×10^6 of human Mantle cell lymphoma REC1 cells and divided into two experimental groups. Starting with tumors of 180 mm^3 volume, mice underwent treatment with single agent while controls received vehicle only. EG-011 was administered 5 days per week at the dose of 200 mg/kg (200 microliters) though i.p. injection.

[5] = tested on: KI-JK; experiment: Proliferation MTT assay, 72 h; format: cell-based; conditions: KI-JK (T Cell - ALCL), 72 h exposure
Method: (§3) Thirty-nine cell lines derived from activated B cell-like (ABC) (n=3) and germinal center B Cell (GCB) (n=12) diffuse large B cell lymphoma (DLBCL), mantle cell lymphoma (MCL) (n=9), chronic lymphocytic leukemia (CLL) (n=2), Hodgkin lymphoma (HL) (n=4), cutaneous T cell lymphoma (CTCL) (n=3), peripheral T cell lymphoma (PTCL) (n=1), anaplastic large T cell lymphoma (ALCL) (n=4), acute T cell leukemia (ATCL) (n=1) were cultured according to the recommended conditions. All media were supplemented with fetal bovine serum (10%), Penicillin-Streptomycin-Neomycin (˜5,000 units penicillin, 5 mg streptomycin and 10 mg neomycin/mL, Sigma) and L-glutamine (1%).
as §2
(§4) Cells were seeded in 96-well plates (non-tissue culture treated) at a density of 10,000 cells for all cell lines. Each compound was dissolved in dimethyl sulphoxide (DMSO). For treatment of cells, compounds were serially diluted in the appropriate tissue culture medium, at a range of 20 mcM-78 nM following a 1:2 dilution factor and added to cells (in three replicates). Cells were incubated for 72 hours at 37° C., 5% CO2. DMSO alone was added to negative control (untreated) cells. Wells containing medium only were included on each plate and served as blanks for absorbance readings. MTT (Sigma-Aldrich Chemie GmbH, Buchs, Switzerland) was prepared as a 5 mg/ml stock in PBS and filter-sterilized. MTT solution (22 μL) was added to each well and tissue culture plates were incubated at 37° C. for 4 hours. Cells were then lysed with 25% SDS lysis buffer and absorbance was read at 570 nm using an AD340 plate reader (Beckman Coulter International SA, Switzerland). Absorbance values were expressed in percentage of proliferating cells in comparison with control cells (control corresponds to 100%).

[6] = tested on: HUT-78; experiment: Proliferation MTT assay, 72 h; format: cell-based; conditions: Homo sapiens, HuT78, HUT-78 (T Cell - CTCL), 72 h exposure
Method: as §3, §2, §4

[7] = tested on: Karpas-422; experiment: Proliferation MTT assay, 72 h; format: cell-based; conditions: Homo sapiens, Karpas-422 (GCB-DLBCL), 72 h exposure
Method: as §3, §2, §4

[8] = tested on: MEC1; experiment: Proliferation MTT assay, 72 h; format: cell-based; conditions: Homo sapiens, MEC1 (CLL), 72 h exposure
Method: as §3, §2, §4

[9] = tested on: H9; experiment: Proliferation MTT assay, 72 h; format: cell-based; conditions: Homo sapiens, H9 (T Cell - CTCL), 72 h exposure
Method: as §3, §2, §4

[10] = tested on: OCI-LY-7; experiment: Proliferation MTT assay, 72 h; format: cell-based; conditions: Homo sapiens, OCI-Ly7, OCI-LY-7 (GCB-DLBCL), 72 h exposure
Method: as §3, §2, §4

[11] = tested on: Z138; experiment: Proliferation MTT assay, 72 h; format: cell-based; conditions: Homo sapiens, Z-138, Z138 (MCL), 72 h exposure
Method: as §3, §2, §4

[12] = tested on: AM-HLH; experiment: Proliferation MTT assay, 72 h; format: cell-based; conditions: AM-HLH (HL), 72 h exposure
Method: as §3, §2, §4

[13] = tested on: MINO; experiment: Proliferation MTT assay, 72 h; format: cell-based; conditions: Homo sapiens, MINO (MCL), 72 h exposure
Method: as §3, §2, §4

[14] = tested on: SU-DHL-10; experiment: Proliferation MTT assay, 72 h; format: cell-based; conditions: Homo sapiens, SU-DHL10, SU-DHL-10 (GCB-DLBCL), 72 h exposure
Method: as §3, §2, §4

[15] = tested on: OCI-LY-19; experiment: Proliferation MTT assay, 72 h; format: cell-based; conditions: Homo sapiens, OCI-LY19, OCI-LY-19 (GCB-DLBCL), 72 h exposure
Method: as §3, §2, §4

[16] = tested on: FARAGE; experiment: Proliferation MTT assay, 72 h; format: cell-based; conditions: FARAGE (GCB-DLBCL), 72 h exposure
Method: as §3, §2, §4

[17] = tested on: MAC-1; experiment: Proliferation MTT assay, 72 h; format: cell-based; conditions: MAC-1 (T Cell - ALCL), 72 h exposure
Method: as §3, §2, §4

[18] = tested on: REC1; experiment: Proliferation MTT assay, 72 h; format: cell-based; conditions: Homo sapiens, REC1 (MCL), 72 h exposure
Method: as §3, §2, §4

[19] = tested on: L-428; experiment: Proliferation MTT assay, 72 h; format: cell-based; conditions: Homo sapiens, L-428 (HL), 72 h exposure
Method: as §3, §2, §4

[20] = tested on: L-1236; experiment: Proliferation MTT assay, 72 h; format: cell-based; conditions: L-1236 (HL), 72 h exposure
Method: as §3, §2, §4

[21] = tested on: SU-DHL-6; experiment: Proliferation MTT assay, 72 h; format: cell-based; conditions: Homo sapiens, SU-DHL-6 (GCB-DLBCL), 72 h exposure
Method: as §3, §2, §4

[22] = tested on: UPN1; experiment: Proliferation MTT assay, 72 h; format: cell-based; conditions: UPN1 (MCL), 72 h exposure
Method: as §3, §2, §4

[23] = tested on: KM-H2; experiment: Proliferation MTT assay, 72 h; format: cell-based; conditions: Homo sapiens, KM-H2 (HL), 72 h exposure
Method: as §3, §2, §4

For `C=CC(=O)N1CCCC(n2c(=O)c3ncccc3n(Cc3ccc(Oc4ccccc4)cc3)c2=O)C1` (stereo not shown) [EG-011, 1-[(4-phenoxyphenyl)methyl]-3-(1-prop-2-enoyl-3-piperidyl)pyrido[3,2-d]pyrimidine-2,4-dione], the “cells in the sub-GO phase (dead cells)” value [1] was “dose dependent increase of the cells in the sub-GO phase”, the IC50 [2] was 7.5 µM and the “cells in the sub-GO phase (dead cells)” value [3] was “dose dependent increase of the cells in the sub-GO phase”. The “body weight of treated animals (in vivo toxicity)” value [4] was “no reduction in the body weight”, the “tumor growth (volume) versus control” value ([4]; Day 6, Day 7, Day 9, P<0.05) was “delayed tumor growth” and the “tumor weight versus control” value ([4]; P<0.001 (FIG. 8)) was “delayed”. It also gave an IC50 [5] of 20 µM, an IC50 [6] of 1.5 µM and an IC50 [7] of 1.5 µM. For the same compound, the IC50 [8] was 8 µM, the IC50 [9] was 1 µM and the IC50 [10] was 5 µM. For the same compound, the IC50 [11] was 20 µM, the IC50 [12] was 18 µM and the IC50 [13] was 0.1 µM. For the same compound, the IC50 [14] was 0.3 µM, the IC50 [15] was 0.15 µM and the IC50 [16] was 2 µM. For the same compound, the IC50 [17] was 0.15 µM, the IC50 [18] was 0.1 µM and the IC50 [19] was 20 µM. It also gave an IC50 [20] of 9 µM, an IC50 [21] of 0.5 µM and an IC50 [22] of 0.12 µM. It also gave an IC50 [23] of 2.5 µM.
